According to ChEMBL document CHEMBL1201862, “PubChem BioAssay data set” (2004):
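Cultured in 96-well plates, cells were exposed to test compound for 48 hours across five concentrations. GI50: concentration for 50% inhibition of growth.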 Calls of active or inactive are those of the source. No stated cut-off is given here; in the data, active = GI50 up to about 1.1 µM and inactive = higher. Where a SMILES comes first, the peptide text is derived from it. [ ]: non-standard residue; d: D form. The star is where a group is joined. ξ: configuration not given here. NMeF = CN[C@@H](Cc1ccccc1)C(=O)O; NMeV = CN[C@H](C(=O)O)C(C)C; ξNMeN = CNC(CC(N)=O)C(=O)O; NMeA = CN[C@@H](C)C(=O)O; ξNMeV = CNC(C(=O)O)C(C)C; Boc = CC(C)(C)OC(=O)*

Legend:
Test in all cases: NCI tumour cell line growth inhibition, 48 h
CCRF-CEM = test system: CCRF-CEM
SF-295 = test system: SF-295
SK-MEL-5 = test system: SK-MEL-5
SK-MEL-28 = test system: SK-MEL-28
A498 = test system: A498
786-0 = test system: 786-0
IGROV-1 = test system: IGROV-1
SR = test system: SR
PC-3 = test system: PC-3
MOLT-4 = test system: MOLT-4
UACC-257 = test system: UACC-257
MDA-N = test system: MDA-N
NCI/ADR-RES = test system: NCI/ADR-RES
SNB-19 = test system: SNB-19
HCC 2998 = test system: HCC 2998
M14 = test system: M14
OVCAR-4 = test system: OVCAR-4
A549 = test system: A549
HL-60 = test system: HL-60
TK-10 = test system: TK-10

Structure (SMILES)	GI50 (CCRF-CEM)	GI50 (SF-295)	GI50 (SK-MEL-5)	GI50 (SK-MEL-28)	GI50 (A498)	GI50 (786-0)	GI50 (IGROV-1)	GI50 (SR)	GI50 (PC-3)	GI50 (MOLT-4)	GI50 (UACC-257)	GI50 (MDA-N)	GI50 (NCI/ADR-RES)	GI50 (SNB-19)	GI50 (HCC 2998)	GI50 (M14)	GI50 (OVCAR-4)	GI50 (A549)	GI50 (HL-60)	GI50 (TK-10)
O=[N+]([O-])c1ccccc1S(=O)(=O)N1CCCc2cc(Cl)ccc21	8.91 µM (inactive)	23.5 µM (inactive)	19.6 µM (inactive)	61 µM (inactive)	27.2 µM (inactive)	> 85.1 µM (inactive)	39 µM (inactive)	5.75 µM (inactive)	18 µM (inactive)	6.35 µM (inactive)	12.6 µM (inactive)	4.46 µM (inactive)	18 µM (inactive)	> 80.2 µM (inactive)	38 µM (inactive)	46.5 µM (inactive)	> 100 µM (inactive)	38.7 µM (inactive)	6.3 µM (inactive)	> 100 µM (inactive)
O=C1/C(=C/c2ccc(O)c(O)c2)CCC/C1=C\c1ccc(O)c(O)c1	1.52 µM (inactive)	8.07 µM (inactive)	1.67 µM (inactive)	3.94 µM (inactive)	7.64 µM (inactive)	3.31 µM (inactive)	4.05 µM (inactive)	1.58 µM (inactive)	3.98 µM (inactive)	2.42 µM (inactive)	4.51 µM (inactive)	3.13 µM (inactive)	4.13 µM (inactive)	7.08 µM (inactive)	4.12 µM (inactive)	4.8 µM (inactive)	5.38 µM (inactive)	7.41 µM (inactive)	3.24 µM (inactive)	3.79 µM (inactive)
COC(=O)[C@H](C)N(C)C(=O)C(CC(N)=O)N(C)C(=O)[C@H](Cc1ccccc1)N(C)C(=O)[C@@H]1CCCN1C(=O)[C@H](C(C)C)N(C)C(=O)C(C(C)C)N(C)C(=O)[C@@H](NC(=O)OC(C)(C)C)C(C)C (stereo not given in full) (Boc-V[ξNMeV][NMeV]P[NMeF][ξNMeN][NMeA]-OMe)	13.6 µM (inactive)	> 50 µM (inactive)	> 50 µM (inactive)	> 50 µM (inactive)	> 50 µM (inactive)	> 50 µM (inactive)	> 50 µM (inactive)	21.3 µM (inactive)	> 50 µM (inactive)	24.5 µM (inactive)	> 50 µM (inactive)	> 50 µM (inactive)	> 50 µM (inactive)	> 50 µM (inactive)	> 50 µM (inactive)	> 50 µM (inactive)	38.5 µM (inactive)	> 50 µM (inactive)	12.1 µM (inactive)	> 50 µM (inactive)
COCCOC1=C(Cl)C(=O)c2c(O)ccc(O)c2C1=O	0.111 µM (active)	14.8 µM (inactive)	1.95 µM (inactive)	2.27 µM (inactive)	10.4 µM (inactive)	1.62 µM (inactive)	3.08 µM (inactive)	0.78 µM (active)	4.62 µM (inactive)	0.105 µM (active)	1.96 µM (inactive)	1.34 µM (inactive)	2.84 µM (inactive)	14.6 µM (inactive)	8.2 µM (inactive)	1.71 µM (inactive)	1.94 µM (inactive)	8.34 µM (inactive)	0.111 µM (active)	1.47 µM (inactive)
NC(=S)N1N=C(c2ccc3c(c2)CCC3)CC1c1ccccc1 (stereo not given)	23.1 µM (inactive)	15.7 µM (inactive)	12.8 µM (inactive)	41.5 µM (inactive)	12.5 µM (inactive)	22.6 µM (inactive)	15 µM (inactive)	25.3 µM (inactive)	19.6 µM (inactive)	8.15 µM (inactive)	21.4 µM (inactive)	22.9 µM (inactive)	15.6 µM (inactive)	34.6 µM (inactive)	16.1 µM (inactive)	26.7 µM (inactive)	7.18 µM (inactive)	23.4 µM (inactive)	7.93 µM (inactive)	18.1 µM (inactive)
S=C(N/N=C/c1ccccn1)Nc1ccc(Cl)cc1	< 0.01 µM (active)	0.181 µM (active)	0.11 µM (active)	0.413 µM (active)	4.1 µM (inactive)	0.0601 µM (active)	0.0933 µM (active)	< 0.0218 µM (active)	0.0424 µM (active)	< 0.01 µM (active)	0.04 µM (active)	0.933 µM (active)	0.0366 µM (active)	0.483 µM (active)	0.59 µM (active)	0.0347 µM (active)	0.689 µM (active)	0.307 µM (active)	0.0317 µM (active)	2.93 µM (inactive)
COc1ccc(-c2c(C#N)c(=O)nc(SC)n2C2OCC(OC(C)=O)C(OC(C)=O)C2OC(C)=O)cc1 (stereo not given)	29 µM (inactive)	> 100 µM (inactive)	45 µM (inactive)	> 100 µM (inactive)	62.1 µM (inactive)	> 100 µM (inactive)	> 100 µM (inactive)	5.11 µM (inactive)	47.3 µM (inactive)	21.3 µM (inactive)	> 100 µM (inactive)	83.4 µM (inactive)	91.2 µM (inactive)	91.8 µM (inactive)	> 100 µM (inactive)	> 100 µM (inactive)	> 100 µM (inactive)	82.4 µM (inactive)	22.2 µM (inactive)	> 100 µM (inactive)
C=CCn1c(=O)c(C)cn(/C(=C/C(=O)OCC)C(=O)OCC)c1=O	1.42 µM (inactive)	> 84.1 µM (inactive)	18 µM (inactive)	15.9 µM (inactive)	22.1 µM (inactive)	5.87 µM (inactive)	16.4 µM (inactive)	5.33 µM (inactive)	14.8 µM (inactive)	5.87 µM (inactive)	20.5 µM (inactive)	13.9 µM (inactive)	21.1 µM (inactive)	46.9 µM (inactive)	17.4 µM (inactive)	13.7 µM (inactive)	18.3 µM (inactive)	30 µM (inactive)	2.19 µM (inactive)	15.4 µM (inactive)
C=C=C(C)C(=O)N(C(C)C)C(C)C	> 100 µM (inactive)	> 100 µM (inactive)	> 100 µM (inactive)	> 100 µM (inactive)	> 100 µM (inactive)	> 100 µM (inactive)	> 100 µM (inactive)	> 100 µM (inactive)	> 100 µM (inactive)	> 100 µM (inactive)	> 100 µM (inactive)	> 100 µM (inactive)	> 100 µM (inactive)	> 100 µM (inactive)	> 100 µM (inactive)	> 100 µM (inactive)	> 100 µM (inactive)	> 100 µM (inactive)	> 100 µM (inactive)	> 100 µM (inactive)
